Source: patent publication US20250051344A1, “BIFUNCTIONAL SELECTIVE DEGRADERS OF SMARCA2 AND THERAPEUTIC USES THEREOF” (Nurix Therapeutics, Inc., priority 2023, published 2025)

Legend:
[1] = molecular target: T1, SMARCA4 (Homo sapiens, UniProt P51532); test: Cellular degradation assay, SMARCA4 (Table 1); type: cell-based
T1 construct: endogenous in cells

[2] = molecular target: T2, SMARCA2 (Homo sapiens, UniProt P51531); test: SMARCA2 Cellular Degradation Assay (Western blot analysis on Jess platform); type: cell-based; settings: for DC50 / Dmax: cellular degradation; for Fold Selectivity SMARCA4/2: ratio DC50 SMARCA4 / DC50 SMARCA2
T2 construct: endogenous in cells
Procedure, shortened: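 Percent SMARCA2 remaining relative to vehicle was derived from capillary Western peak areas, each normalized to β-actin after capillary background subtraction. Samples were tumor-derived cell lysates, 5 μg total protein loaded, heated at 95° C. for 5 minutes before the Jess run.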

T1 sequence (P51532 whole entry, species assumed): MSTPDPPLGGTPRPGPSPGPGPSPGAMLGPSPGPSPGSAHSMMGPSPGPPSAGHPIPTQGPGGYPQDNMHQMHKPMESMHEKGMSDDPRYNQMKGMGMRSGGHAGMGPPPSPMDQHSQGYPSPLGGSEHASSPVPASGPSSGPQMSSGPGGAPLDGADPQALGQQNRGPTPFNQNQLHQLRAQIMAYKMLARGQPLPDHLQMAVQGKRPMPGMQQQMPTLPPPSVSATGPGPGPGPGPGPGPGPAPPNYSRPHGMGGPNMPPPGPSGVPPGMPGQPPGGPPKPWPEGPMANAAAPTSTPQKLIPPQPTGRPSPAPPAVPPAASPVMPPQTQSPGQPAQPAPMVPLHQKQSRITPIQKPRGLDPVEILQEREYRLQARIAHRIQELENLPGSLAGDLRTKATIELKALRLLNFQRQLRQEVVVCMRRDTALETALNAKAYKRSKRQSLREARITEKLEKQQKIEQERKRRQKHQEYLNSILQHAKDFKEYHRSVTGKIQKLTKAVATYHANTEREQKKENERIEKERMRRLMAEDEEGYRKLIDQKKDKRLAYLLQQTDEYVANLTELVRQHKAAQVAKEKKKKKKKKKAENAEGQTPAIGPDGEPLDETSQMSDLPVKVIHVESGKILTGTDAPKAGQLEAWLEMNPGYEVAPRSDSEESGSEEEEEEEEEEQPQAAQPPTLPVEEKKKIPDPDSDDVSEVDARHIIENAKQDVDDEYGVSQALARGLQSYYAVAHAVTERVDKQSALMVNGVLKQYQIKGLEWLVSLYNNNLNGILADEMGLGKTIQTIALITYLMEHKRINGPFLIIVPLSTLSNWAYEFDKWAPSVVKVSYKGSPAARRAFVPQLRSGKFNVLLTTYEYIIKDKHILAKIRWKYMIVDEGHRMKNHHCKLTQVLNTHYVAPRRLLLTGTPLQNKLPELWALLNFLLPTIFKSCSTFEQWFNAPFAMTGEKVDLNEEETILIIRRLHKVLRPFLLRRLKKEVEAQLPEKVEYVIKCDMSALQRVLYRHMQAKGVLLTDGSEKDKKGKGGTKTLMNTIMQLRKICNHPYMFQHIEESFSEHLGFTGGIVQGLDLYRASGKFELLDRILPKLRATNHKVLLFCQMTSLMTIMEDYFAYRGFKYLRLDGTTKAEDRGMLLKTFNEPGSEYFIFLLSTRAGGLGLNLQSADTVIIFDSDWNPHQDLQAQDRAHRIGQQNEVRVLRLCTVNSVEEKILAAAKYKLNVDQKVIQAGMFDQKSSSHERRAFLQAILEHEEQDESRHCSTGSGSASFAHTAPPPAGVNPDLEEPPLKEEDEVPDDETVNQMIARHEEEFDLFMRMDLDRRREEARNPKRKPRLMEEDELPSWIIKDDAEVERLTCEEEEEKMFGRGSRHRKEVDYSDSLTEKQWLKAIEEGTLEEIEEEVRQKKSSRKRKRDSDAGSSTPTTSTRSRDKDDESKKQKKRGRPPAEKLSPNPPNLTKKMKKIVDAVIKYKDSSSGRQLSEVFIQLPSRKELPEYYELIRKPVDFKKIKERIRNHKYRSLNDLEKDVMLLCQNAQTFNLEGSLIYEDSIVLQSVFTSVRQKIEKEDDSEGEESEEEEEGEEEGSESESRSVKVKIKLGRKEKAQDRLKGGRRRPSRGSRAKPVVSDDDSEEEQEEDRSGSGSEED
T2 sequence (P51531 whole entry, species assumed): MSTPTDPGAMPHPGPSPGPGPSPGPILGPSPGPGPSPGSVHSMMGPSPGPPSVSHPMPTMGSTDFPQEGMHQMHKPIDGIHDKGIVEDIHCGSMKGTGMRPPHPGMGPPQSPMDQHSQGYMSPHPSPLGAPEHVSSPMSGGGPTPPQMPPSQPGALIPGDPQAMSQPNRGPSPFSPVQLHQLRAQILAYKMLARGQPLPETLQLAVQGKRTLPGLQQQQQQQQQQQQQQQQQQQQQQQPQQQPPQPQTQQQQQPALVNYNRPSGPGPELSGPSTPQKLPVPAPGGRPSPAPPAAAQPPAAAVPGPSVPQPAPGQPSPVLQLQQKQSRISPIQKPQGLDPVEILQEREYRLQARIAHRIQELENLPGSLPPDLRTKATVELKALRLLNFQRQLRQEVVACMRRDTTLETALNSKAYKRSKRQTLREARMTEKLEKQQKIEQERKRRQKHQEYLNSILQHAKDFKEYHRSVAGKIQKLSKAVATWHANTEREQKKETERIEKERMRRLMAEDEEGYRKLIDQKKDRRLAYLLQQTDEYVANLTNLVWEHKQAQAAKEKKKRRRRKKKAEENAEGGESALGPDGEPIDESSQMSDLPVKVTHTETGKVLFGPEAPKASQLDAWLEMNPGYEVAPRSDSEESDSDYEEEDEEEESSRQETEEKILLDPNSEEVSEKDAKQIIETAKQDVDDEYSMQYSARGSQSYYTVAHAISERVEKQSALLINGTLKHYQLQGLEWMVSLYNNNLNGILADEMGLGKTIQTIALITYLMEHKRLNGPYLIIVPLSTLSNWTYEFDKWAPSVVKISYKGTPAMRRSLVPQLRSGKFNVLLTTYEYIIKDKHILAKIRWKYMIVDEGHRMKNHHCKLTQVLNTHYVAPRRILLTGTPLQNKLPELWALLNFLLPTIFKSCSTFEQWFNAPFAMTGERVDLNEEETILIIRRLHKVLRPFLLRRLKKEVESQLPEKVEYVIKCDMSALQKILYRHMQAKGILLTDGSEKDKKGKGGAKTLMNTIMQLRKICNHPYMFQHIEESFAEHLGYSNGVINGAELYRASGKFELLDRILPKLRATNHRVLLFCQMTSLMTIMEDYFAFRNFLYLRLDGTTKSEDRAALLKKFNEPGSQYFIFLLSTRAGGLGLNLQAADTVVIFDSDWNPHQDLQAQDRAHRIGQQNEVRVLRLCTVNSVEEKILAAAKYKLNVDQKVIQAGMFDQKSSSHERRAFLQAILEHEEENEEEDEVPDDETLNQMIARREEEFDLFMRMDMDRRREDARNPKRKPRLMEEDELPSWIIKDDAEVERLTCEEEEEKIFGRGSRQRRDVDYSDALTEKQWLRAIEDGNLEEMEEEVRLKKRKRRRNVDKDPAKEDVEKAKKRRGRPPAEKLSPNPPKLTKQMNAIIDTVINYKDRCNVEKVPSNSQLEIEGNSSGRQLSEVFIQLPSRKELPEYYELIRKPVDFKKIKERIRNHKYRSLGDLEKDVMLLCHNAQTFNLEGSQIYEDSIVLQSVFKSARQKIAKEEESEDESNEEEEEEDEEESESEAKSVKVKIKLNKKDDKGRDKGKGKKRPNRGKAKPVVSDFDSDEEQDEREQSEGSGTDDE

| Compound | Dmax [1] [%] | DC50 [2] [nM] | Dmax [2] [%] | Fold Selectivity SMARCA4/2 [2] | DC50 [1] [nM] |
| --- | --- | --- | --- | --- | --- |
| Cc1cc(C2(C(=O)N(C)C3CCN(CCC4CCN(c5ccc(C6CCC(=O)NC6=O)c(F)c5)CC4)CC3)CCN(c3cnnc(-c4ccccc4O)c3)CC2)on1 (racemic) [Example 60, rac-N-{1-[2-(1-{4-[(3R)-2,6-dioxopiperidin-3-yl]-3-fluorophenyl}piperidin-4-yl)ethyl]piperidin-4-yl}-1-[6-(2-hydroxyphenyl)pyridazin-4-yl]-N-methyl-4-(3-methyl-1,2-oxazol-5-yl)piperidine-4-carboxamide] | 35.7 | 3.79 | 85.7 | 2639 |  |
| O=C1CCC(c2ccc(N3CCOC4(CCN(CC(=O)N5CCC6(CC5)CN(C(=O)C5(c7ccccc7)CCN(c7cnnc(-c8ccccc8O)c7)CC5)C6)CC4)C3)cc2)C(=O)N1 (racemic) [Example 152, rac-(3R)-3-(4-{9-[2-(2-{1-[6-(2-hydroxyphenyl)pyridazin-4-yl]-4-phenylpiperidine-4-carbonyl}-2,7-diazaspiro[3.5]nonan-7-yl)-2-oxoethyl]-1-oxa-4,9-diazaspiro[5.5]undecan-4-yl}phenyl)piperidine-2,6-dione] | 45.4 | 68.2 | 66.5 | 147 |  |
| Cc1ccnn1C1(C(=O)N(C)C2CCN(CCC3CCN(c4ccc([C@H]5CCC(=O)NC5=O)cc4)CC3)CC2)CCN(c2cnnc(-c3ccccc3O)c2)CC1 (racemic) [Example 78, rac-N-{1-[2-(1-{4-[(3R)-2,6-dioxopiperidin-3-yl]phenyl}piperidin-4-yl)ethyl]piperidin-4-yl}-1-[6-(2-hydroxyphenyl)pyridazin-4-yl]-N-methyl-4-(5-methyl-1H-pyrazol-1-yl)piperidine-4-carboxamide] | 37.4 | 5.1 | 85.8 | 1961 |  |
| O=C1CCC(NC(=O)c2cc(N3CCN(C(=O)C4(c5ccccc5)CCN(c5cnnc(-c6ccccc6O)c5)CC4)CC3)ccn2)C(=O)N1 (racemic) [Example 1, rac-N-[(3r)-2,6-dioxopiperidin-3-yl]-4-(4-{1-[6-(2-hydroxyphenyl)pyridazin-4-yl]-4-phenylpiperidine-4-carbonyl}piperazin-1-yl)pyridine-2-carboxamide] | 13 |  | 35.2 | 1 |  |
| Cc1cc(C2(C(=O)N(C)C3CCN(CC4CCN(c5ccc(C6CCC(=O)NC6=O)cc5)CC4)CC3)CCN(c3cnnc(-c4ccccc4O)c3)CC2)on1 (racemic) [Example 90, rac-N-{1-[(1-{4-[(3R)-2,6-dioxopiperidin-3-yl]phenyl}piperidin-4-yl)methyl]piperidin-4-yl}-1-[6-(2-hydroxyphenyl)pyridazin-4-yl]-N-methyl-4-(3-methyl-1,2-oxazol-5-yl)piperidine-4-carboxamide] | 34.8 | 8.55 | 76.5 | 1170 |  |
| COC1(C(=O)N2CC3(CN(CCC4CCN(c5ccc(C6CCC(=O)NC6=O)cc5)CC4)C3)C2)CCN(c2cnnc(-c3ccccc3O)c2)CC1 (racemic) [Example 82, rac-3-(4-(4-(2-(6-(1-(6-(2-hydroxyphenyl)pyridazin-4-yl)-4-methoxypiperidine-4-carbonyl)-2,6-diazaspiro[3.3]heptan-2-yl)ethyl)piperidin-1-yl)phenyl)piperidine-2,6-dione] | 23.8 | 11.3 | 71.2 | 883 |  |
| Cc1cccc(C2(C(=O)N3CC4(CN(CC5CCN(c6ccc(C7CCC(=O)NC7=O)cc6)CC5)C4)C3)CCN(c3cnnc(-c4ccccc4O)c3)CC2)c1 (racemic) [Example 43, rac-(3R)-3-(4-{4-[(6-{1-[6-(2-hydroxyphenyl)pyridazin-4-yl]-4-(3-methylphenyl)piperidine-4-carbonyl}-2,6-diazaspiro[3.3]heptan-2-yl)methyl]piperidin-1-yl}phenyl)piperidine-2,6-dione] | 59.3 | 11.9 | 78.5 | 6.99 | 83.4 |
| O=C1CC[C@@H](c2ccc(O[C@H]3CC[C@H](CN4CC5(C4)CN(C(=O)C4(c6ccccc6)CCN(c6cnnc(-c7ccccc7O)c6)CC4)C5)CC3)cc2)C(=O)N1 (racemic) [Example 166, (3RS)-3-(4-{[(1r,4r)-4-[(6-{1-[6-(2-hydroxyphenyl)pyridazin-4-yl]-4-phenylpiperidine-4-carbonyl}-2,6-diazaspiro[3.3]heptan-2-yl)methyl]cyclohexyl]oxy}phenyl)piperidine-2,6-dione] | 35.2 | 24.2 | 65.8 | 13 | 317 |
| CN(C(=O)C1(Oc2ccn(C)n2)CCN(c2cnnc(-c3ccccc3O)c2)CC1)C1CCN(CC2CCN(c3ccc([C@H]4CCC(=O)NC4=O)cc3)CC2)CC1 [Example 125, (r)-n-(1-((1-(4-(2,6-dioxopiperidin-3-yl)phenyl)piperidin-4-yl)methyl)piperidin-4-yl)-1-(6-(2-hydroxyphenyl)pyridazin-4-yl)-n-methyl-4-((1-methyl-1h-pyrazol-3-yl)oxy)piperidine-4-carboxamide] | 62.5 | 6.01 | 82 | 6 | 36.9 |
| O=C1CCC(c2ccc(N3CCC(CCN4CC5(C4)CN(C(=O)C4(c6cc7ccccn7n6)CCN(c6cnnc(-c7ccccc7O)c6)CC4)C5)CC3)cc2)C(=O)N1 (racemic) [Example 80, rac-(3R)-3-(4-{4-[2-(6-{1-[6-(2-hydroxyphenyl)pyridazin-4-yl]-4-{pyrazolo[1,5-a]pyridin-2-yl}piperidine-4-carbonyl}-2,6-diazaspiro[3.3]heptan-2-yl)ethyl]piperidin-1-yl}phenyl)piperidine-2,6-dione] | 21.9 | 14.2 | 60 | 705 |  |
| O=C1CC[C@H](c2ccc(N3CCC(CNC4CCN(C(=O)C5(Oc6ccccc6)CCN(c6cnnc(-c7ccccc7O)c6)CC5)CC4)CC3)cc2)C(=O)N1 [Example 180, (3R)-3-[4-(4-{[(1-{1-[6-(2-hydroxyphenyl)pyridazin-4-yl]-4-phenoxypiperidine-4-carbonyl}piperidin-4-yl)amino]methyl}piperidin-1-yl)phenyl]piperidine-2,6-dione] | 46.2 | 13.3 | 77.2 | 754 |  |
| CN(CC1(c2ccccc2)CCN(c2cnnc(-c3ccccc3O)c2)CC1)C1CCN(C(=O)C2CCN(c3ccc(C4CCC(=O)NC4=O)cc3)CC2)CC1 (racemic) [Example 142, rac-(r)-3-(4-(4-(4-(((1-(6-(2-hydroxyphenyl)pyridazin-4-yl)-4-phenylpiperidin-4-yl)methyl)(methyl)amino)piperidine-1-carbonyl)piperidin-1-yl)phenyl)piperidine-2,6-dione] | 60 | 24.5 | 69.9 | 3 | 84.8 |
| O=C1CC[C@H](c2ccc(N3CCC(CN4CCC5(CC4)CN(C(=O)C4(c6ccccc6)CCN(c6cnnc(-c7ccccc7O)c6)CC4)C5)CC3)cc2)C(=O)N1 [Example 194, (3R)-3-(4-{4-[(2-{1-[6-(2-hydroxyphenyl)pyridazin-4-yl]-4-phenylpiperidine-4-carbonyl}-2,7-diazaspiro[3.5]nonan-7-yl)methyl]piperidin-1-yl}phenyl)piperidine-2,6-dione] | 70.3 | 3.24 | 88.1 | 10 | 31.3 |
